# Key:
# Spodoptera littoralis = experiment: Antifeedant activity against fifth instar larvae of Spodoptera littoralis fed on compound-treated lettuce leaf at 10 ug/cm'2 by leaf-disk method; assay type: functional; set-up: unit not given here
# Artemia salina = experiment: Toxicity against Artemia salina (brine shrimp) after 24 hr; assay type: functional
SMILES,FR50 (Spodoptera littoralis),LC50 (Artemia salina)
C=C(C)c1cc2cc(C(C)=O)c(O)cc2o1 [EUPARIN],0.42,58.9 µg/mL
COc1cc(O)c2c(=O)c(O)c(-c3ccc(O)c(O)c3)oc2c1 [RHAMNETIN],71,–
COc1cc2ccc(=O)oc2cc1OCC=C(C)C [PRENYLETIN 6-METHYL ETHER],0.43,17.6 µg/mL
CC(=O)c1cc2c(cc1O)OC(C)(C)C=C2 [DEMETHYLENCECALIN],0.4,17.6 µg/mL
CC(C)=CCOc1cc2oc(=O)ccc2cc1O [PRENYLETIN],1.06,3.8 µg/mL
CC(C)=CCc1cc(/C=C/C(=O)O)ccc1O [DRUPANIN],78,104 µg/mL
COc1cc2c(cc1C(C)=O)C=CC(C)(C)O2 [ENCECALIN],0.08,0.9 µg/mL
COc1cc2ccc(=O)oc2c(O)c1OCC=C(C)C [CAPENSIN],1.04,52.5 µg/mL
COC(=O)/C=C/c1ccc(OC(C)=O)c(C/C=C(\C)COC(C)=O)c1,–,39.8 µg/mL

# — ChEMBL document CHEMBL3044768, “Chemistry, toxicity and antifeedant activity of the resin of Flourensia thurifera” (1997)
